Measured values taken from patent US8722670B2, “Selective NR2B antagonists” (Bristol-Myers Squibb Company, priority 2011, dated 2014).
Like-named read-outs stand apart in the source and are kept apart here.

Biological target: T1, hNR2B (Homo sapiens, UniProt Q05586+Q13224)
T1 construct: expressed in transfected cells; host or cells: Xenopus laevis oocytes, cRNA-injected
Experiment: Electrophysiology NMDA receptor experiments: two electrode voltage-clamp in Xenopus laevis oocytes, hNR2B IC50
Assay type: cell-based
Details: 50 μM glutamate, 30 μM glycine

[1] = hNR2B activity class, read-out: Activity
[2] = voltage clamp -40 mV, read-out: hNR2B IC50

T1 sequence (Q13224 27-1484, other chains not shown): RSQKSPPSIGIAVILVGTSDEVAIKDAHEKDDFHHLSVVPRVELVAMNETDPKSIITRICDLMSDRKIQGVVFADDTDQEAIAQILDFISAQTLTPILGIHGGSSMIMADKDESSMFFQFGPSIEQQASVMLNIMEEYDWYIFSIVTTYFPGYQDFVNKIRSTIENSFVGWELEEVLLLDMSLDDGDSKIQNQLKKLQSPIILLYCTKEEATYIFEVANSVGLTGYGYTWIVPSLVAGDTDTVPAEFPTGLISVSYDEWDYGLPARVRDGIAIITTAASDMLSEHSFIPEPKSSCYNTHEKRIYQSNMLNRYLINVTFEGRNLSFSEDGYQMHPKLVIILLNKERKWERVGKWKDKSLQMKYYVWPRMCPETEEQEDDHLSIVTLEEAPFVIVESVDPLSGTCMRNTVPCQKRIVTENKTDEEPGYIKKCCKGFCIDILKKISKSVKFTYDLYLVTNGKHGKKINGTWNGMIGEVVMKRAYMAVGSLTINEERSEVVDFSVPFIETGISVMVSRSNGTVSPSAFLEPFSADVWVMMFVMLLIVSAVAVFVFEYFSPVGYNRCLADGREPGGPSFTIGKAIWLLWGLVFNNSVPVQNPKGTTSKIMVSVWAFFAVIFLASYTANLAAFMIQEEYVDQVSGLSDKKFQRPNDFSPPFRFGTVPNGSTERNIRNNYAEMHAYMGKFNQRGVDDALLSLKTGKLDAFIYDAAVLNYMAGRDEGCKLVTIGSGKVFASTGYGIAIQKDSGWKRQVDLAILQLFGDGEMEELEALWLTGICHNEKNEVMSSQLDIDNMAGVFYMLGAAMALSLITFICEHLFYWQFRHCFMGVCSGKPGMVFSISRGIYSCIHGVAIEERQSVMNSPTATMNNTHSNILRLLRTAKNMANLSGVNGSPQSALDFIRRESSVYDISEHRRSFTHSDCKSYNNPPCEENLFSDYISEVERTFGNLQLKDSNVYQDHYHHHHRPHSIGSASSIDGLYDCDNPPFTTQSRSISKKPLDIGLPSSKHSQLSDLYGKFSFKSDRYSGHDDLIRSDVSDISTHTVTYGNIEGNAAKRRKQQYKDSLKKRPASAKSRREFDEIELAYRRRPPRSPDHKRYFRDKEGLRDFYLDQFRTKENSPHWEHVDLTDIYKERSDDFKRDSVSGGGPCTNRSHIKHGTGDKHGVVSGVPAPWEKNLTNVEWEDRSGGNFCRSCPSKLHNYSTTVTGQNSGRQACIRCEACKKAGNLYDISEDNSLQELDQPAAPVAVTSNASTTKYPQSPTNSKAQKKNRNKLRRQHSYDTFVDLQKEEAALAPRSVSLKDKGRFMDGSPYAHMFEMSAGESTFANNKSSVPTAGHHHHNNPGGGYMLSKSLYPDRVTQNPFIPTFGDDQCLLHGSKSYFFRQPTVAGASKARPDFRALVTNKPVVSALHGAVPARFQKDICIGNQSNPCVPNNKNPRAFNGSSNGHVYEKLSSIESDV

SMILES	IC50 [1]	also measured
O=C1CCc2cc(OCc3nnc(Nc4ccc(Cl)cc4)o3)ccc2N1 [Example 1, 6-((5-(4-chlorophenylamino)-1,3,4-oxadiazol-2-yl)methoxy)-3,4-dihydroquinolin-2(1H)-one]	–	IC50 [2]: 715 nM
O=c1ccc2cc(OCc3nnc(-c4ccc(Cl)c(Cl)c4)o3)ccc2[nH]1 [Example 2, 6-((5-(3,4-dichlorophenyl)-1,3,4-oxadiazol-2-yl)methoxy)quinolin-2(1H)-one]	–	IC50 [2]: > 10000 nM
CC(C)OC(=O)Nc1ccc(OCc2nnc(Nc3ccc(Cl)c(Cl)c3)o2)cc1 [Example 3, Isopropyl 4-((5-(3,4-dichlorophenylamino)-1,3,4-oxadiazol-2-yl)methoxy)phenyl carbamate]	–	IC50 [2]: 7300 nM
O=C1CCc2cc(OCc3nnc(Nc4ccc(Br)cc4)o3)ccc2N1 [Example 4]	–	IC50 [2]: 265 nM
O=C1CCc2cc(OCc3nnc(Nc4ccc(Cl)c(Cl)c4)o3)ccc2N1 [Example 5]	–	IC50 [2]: 57 nM
O=c1ccc2cc(OCc3nnc(Nc4ccc(C(F)(F)F)cc4)o3)ccc2[nH]1 [Example 11]	–	IC50 [2]: 55 nM
O=C1CCc2cc(OCc3nnc(Nc4ccc(Cl)cn4)o3)ccc2N1 [Example 15]	> 10000 nM	–
O=C1CCc2cc(OCc3nnc(Nc4ccc(OC(F)F)cc4)o3)ccc2N1 [Example 16]	201 to 1000 nM	–
O=c1ccc2cc(OCc3nnc(Nc4ccc(OC(F)F)cc4)o3)ccc2[nH]1 [Example 17]	–	IC50 [2]: 80 nM
CCOC(=O)Cc1ccc(Nc2nnc(COc3ccc4c(c3)CCC(=O)N4)o2)cc1 [Example 18]	> 10000 nM	–
O=C1CCc2cc(OCc3nnc(NCc4ccc(Cl)cc4)o3)ccc2N1 [Example 20]	–	IC50 [2]: 476 nM
O=c1ccc2cc(OCc3nnc(NCc4ccc(Cl)nc4)o3)ccc2[nH]1 [Example 24]	–	IC50 (Activity, hNR2B activity class): 1000 to 10000 nM; IC50 (hNR2B IC50 (nM), voltage clamp -40 mV): 7240 nM
O=C1CCc2cc(OCc3nnc(NCc4ccc(Cl)nc4)o3)ccc2N1 [Example 25]	> 10000 nM	–
CS(=O)(=O)Nc1ccc(OCc2nnc(NCc3ccc(Cl)c(Cl)c3)o2)cc1 [Example 30]	–	IC50 [2]: 19 nM
CCOC(=O)Nc1ccc(OCc2nnc(Nc3ccc(Cl)c(Cl)c3)o2)cc1 [Example 31]	> 10000 nM	–
CCOC(=O)Nc1ccc(OCc2nnc(NCc3ccc(Cl)c(Cl)c3)o2)cc1 [Example 32]	–	IC50 [2]: 2120 nM
O=c1ccc2cc(OCc3nnc(Nc4ccccc4F)o3)ccc2[nH]1 [Example 33]	> 10000 nM	–
O=c1ccc2cc(OCc3nnc(Nc4ccccc4)o3)ccc2[nH]1 [Example 34]	1000 to 10000 nM	–
O=c1ccc2cc(OCc3nnc(Nc4ccc(Cl)cc4F)o3)ccc2[nH]1 [Example 35]	–	IC50 [2]: 884 nM
O=c1ccc2cc(OCc3nnc(Nc4cccc(F)c4)o3)ccc2[nH]1 [Example 39]	1000 to 10000 nM	–
O=c1ccc2cc(OCc3nnc(Nc4ccc(F)cc4)o3)ccc2[nH]1 [Example 40]	1000 to 10000 nM	–
O=c1ccc2cc(OCc3nnc(Nc4ccccc4Cl)o3)ccc2[nH]1 [Example 41]	> 10000 nM	–
O=c1ccc2cc(OCc3nnc(Nc4cccc(C(F)(F)F)c4)o3)ccc2[nH]1 [Example 42]	201 to 1000 nM	–
Cc1ccc(Nc2nnc(COc3ccc4[nH]c(=O)ccc4c3)o2)cc1 [Example 45]	201 to 1000 nM	–
Cc1cccc(Nc2nnc(COc3ccc4[nH]c(=O)ccc4c3)o2)c1 [Example 46]	1000 to 10000 nM	–
O=c1ccc2cc(OCc3nnc(Nc4ccc(Cl)c(F)c4)o3)ccc2[nH]1 [Example 49]	–	IC50 [2]: 18 nM

SMILES	IC50 [1]	also measured
O=c1ccc2cc(OCc3nnc(Nc4cc(Cl)cc(Cl)c4)o3)ccc2[nH]1 [Example 53]	–	IC50 [2]: 4040 nM
O=c1ccc2cc(OCc3nnc(Nc4ccccc4C(F)(F)F)o3)ccc2[nH]1 [Example 54]	> 10000 nM	–
O=c1ccc2cc(OCc3nnc(Nc4ccc(Cl)c(OC(F)(F)F)c4)o3)ccc2[nH]1 [Example 55]	–	IC50 [2]: 542 nM
O=c1ccc2cc(OCc3nnc(Nc4ccc(Cl)cc4Cl)o3)ccc2[nH]1 [Example 56]	> 10000 nM	–
O=c1ccc2cc(OCc3nnc(Nc4cc(Cl)ccc4Cl)o3)ccc2[nH]1 [Example 57]	> 10000 nM	–
O=c1ccc2cc(OCc3nnc(Nc4cccc(Cl)c4)o3)ccc2[nH]1 [Example 58]	–	IC50 [2]: 830 nM
O=c1ccc2cc(OCc3nnc(NCc4ccccc4Cl)o3)ccc2[nH]1 [Example 63]	1000 to 10000 nM	–
O=c1ccc2cc(OCc3nnc(Nc4c(Cl)cccc4Cl)o3)ccc2[nH]1 [Example 66]	> 10000 nM	–
O=c1ccc2cc(OCc3nnc(NCc4ccc(Cl)cc4F)o3)ccc2[nH]1 [Example 67]	201 to 1000 nM	–
O=c1ccc2cc(OCc3nnc(NCc4cccc(F)c4)o3)ccc2[nH]1 [Example 68]	201 to 1000 nM	–
O=c1ccc2cc(OCc3nnc(NCc4c(Cl)cccc4Cl)o3)ccc2[nH]1 [Example 70]	1000 to 10000 nM	–
O=c1ccc2cc(OCc3nnc(NCc4ccccc4C(F)(F)F)o3)ccc2[nH]1 [Example 75]	1000 to 10000 nM	–
O=c1ccc2cc(OCc3nnc(NCc4cccc(Cl)c4)o3)ccc2[nH]1 [Example 77]	201 to 1000 nM	–
CC1(C)Cc2cc(OCc3nnc(Nc4ccc(Cl)c(Cl)c4)o3)ccc2NC1=O [Example 80]	1000 to 10000 nM	–
CC1(C)Cc2cc(OCc3nnc(Nc4ccc(Cl)c(F)c4)o3)ccc2NC1=O [Example 83]	1000 to 10000 nM	–
CC1(C)Cc2cc(OCc3nnc(NCc4ccc(Cl)c(Cl)c4)o3)ccc2NC1=O [Example 84]	> 10000 nM	–
O=c1ccc2cc(OCc3nnc(NCc4ccc5c(c4)OCO5)o3)ccc2[nH]1 [Example 85]	1000 to 10000 nM	–
Cc1cc(CNc2nnc(COc3ccc4[nH]c(=O)ccc4c3)o2)ccc1F [Example 86]	201 to 1000 nM	–
O=c1ccc2cc(OCc3nnc(Nc4cccc(Oc5ccccc5)c4)o3)ccc2[nH]1 [Example 89]	201 to 1000 nM	–
Cc1cc(Nc2nnc(COc3ccc4[nH]c(=O)ccc4c3)o2)ccc1F [Example 90]	201 to 1000 nM	–
O=c1ccc2cc(OCc3nnc(Nc4ccc(Oc5ccccc5)cc4)o3)ccc2[nH]1 [Example 91]	1000 to 10000 nM	–
Cc1cccc(CNc2nnc(COc3ccc4[nH]c(=O)ccc4c3)o2)c1 [Example 94]	201 to 1000 nM	–
O=c1ccc2cc(OCc3nnc(Nc4ccc(F)c(Cl)c4)o3)ccc2[nH]1 [Example 96]	201 to 1000 nM	–
O=c1ccc2cc(OCc3nnc(Nc4ccc(F)c(C(F)F)c4)o3)ccc2[nH]1 [Example 99]	201 to 1000 nM	–
O=c1ccc2cc(OCc3nnc(NCc4ccccc4F)o3)ccc2[nH]1 [Example 100]	1000 to 10000 nM	–
COc1ccc(Nc2nnc(COc3ccc4[nH]c(=O)ccc4c3)o2)cc1F [Example 103]	201 to 1000 nM	–

Second part, led by results:

IC50 [1]	SMILES	also measured
< 200 nM	CC(Oc1ccc2[nH]c(=O)ccc2c1)c1nnc(Nc2ccc(Cl)c(Cl)c2)o1 (single isomer, unassigned) [Example 109]	–
< 200 nM	O=C1Cc2cc(OCc3nnc(Nc4ccc(Cl)c(Cl)c4)o3)ccc2N1 [Example 8]	–
< 200 nM	O=C1Cc2cc(OCc3nnc(NCc4ccc(Cl)c(Cl)c4)o3)ccc2N1 [Example 9]	–
< 200 nM	O=c1ccc2cc(OCc3nnc(Nc4ccc(Cl)c(Cl)c4)o3)ccc2[nH]1 [Example 10]	–
< 200 nM	O=c1ccc2cc(OCc3nnc(Nc4ccc(Cl)cc4)o3)ccc2[nH]1 [Example 12]	–
< 200 nM	O=c1ccc2cc(OCc3nnc(Nc4ccc(OC(F)(F)F)cc4)o3)ccc2[nH]1 [Example 13]	–
201 to 1000 nM	O=C1CCc2cc(OCc3nnc(Nc4ccc(OC(F)(F)F)cc4)o3)ccc2N1 [Example 14]	–
< 200 nM	O=C1CCc2cc(OCc3nnc(NCc4ccc(Cl)c(Cl)c4)o3)ccc2N1 [Example 21]	–
< 200 nM	O=c1ccc2cc(OCc3nnc(NCc4ccc(Cl)c(Cl)c4)o3)ccc2[nH]1 [Example 22]	–
< 200 nM	O=C1CCc2cc(OCc3nnc(NCc4ccc(OC(F)(F)F)cc4)o3)ccc2N1 [Example 23]	–
< 200 nM	O=c1ccc2cc(OCc3nnc(NCc4ccc(OC(F)(F)F)cc4)o3)ccc2[nH]1 [Example 26]	–
< 200 nM	O=c1ccc2cc(OCc3nnc(NCc4ccc(OC(F)F)cc4)o3)ccc2[nH]1 [Example 27]	–
< 200 nM	O=C1CCc2cc(OCc3nnc(NCc4ccc(OC(F)F)cc4)o3)ccc2N1 [Example 28]	–
< 200 nM	CS(=O)(=O)Nc1ccc(OCc2nnc(Nc3ccc(Cl)c(Cl)c3)o2)cc1 [Example 29]	–
< 200 nM	Clc1ccc(Nc2nnc(COc3ccc4[nH]ncc4c3)o2)cc1Cl [Example 50]	–
< 200 nM	O=c1ccc2cc(OCc3nnc(Nc4ccc(Cl)c(C(F)(F)F)c4)o3)ccc2[nH]1 [Example 51]	–
< 200 nM	CC(C)c1ccc(Nc2nnc(COc3ccc4[nH]c(=O)ccc4c3)o2)cc1 [Example 52]	–
< 200 nM	O=c1ccc2cc(OCc3nnc(Nc4cccc(Cl)c4Cl)o3)ccc2[nH]1 [Example 59]	–
< 200 nM	O=c1ccc2cc(OCc3nnc(Nc4ccc(C(F)(F)F)c(Cl)c4)o3)ccc2[nH]1 [Example 73]	–
< 200 nM	O=c1ccc2cc(OCc3nnc(Nc4ccc(OC(F)(F)F)c(Cl)c4)o3)ccc2[nH]1 [Example 74]	–
< 200 nM	O=c1ccc2cc(OCc3nnc(NCc4ccc(C(F)(F)F)cc4)o3)ccc2[nH]1 [Example 76]	–
< 200 nM	O=c1ccc2cc(OCc3nnc(Nc4ccc(OC(F)F)c(Cl)c4)o3)ccc2[nH]1 [Example 87]	–
< 200 nM	O=c1ccc2cc(OCc3nnc(Nc4ccc(Cl)c(OC(F)F)c4)o3)ccc2[nH]1 [Example 88]	–
< 200 nM	Cc1ccc(Nc2nnc(COc3ccc4[nH]c(=O)ccc4c3)o2)cc1Cl [Example 92]	–
< 200 nM	Cc1ccc(Nc2nnc(COc3ccc4[nH]c(=O)ccc4c3)o2)cc1F [Example 102]	–
< 200 nM	CC(Oc1ccc2[nH]c(=O)ccc2c1)c1nnc(Nc2ccc(Cl)c(Cl)c2)o1 (centres unmarked) [Example 106]	–
< 200 nM	CC(Oc1ccc2[nH]c(=O)ccc2c1)c1nnc(Nc2ccc(OC(F)F)c(Cl)c2)o1 (centres unmarked) [Example 108]	–
< 200 nM	O=C1Nc2ccc(OCc3nnc(Nc4ccc(Cl)c(Cl)c4)o3)cc2CO1 [Example 111]	–
< 200 nM	O=c1[nH]c2ccc(OCc3nnc(NCc4ccc(Cl)c(Cl)c4)o3)cc2[nH]1 [Example 112]	–
< 200 nM	O=c1[nH]c2ccc(OCc3nnc(Nc4ccc(Cl)c(Cl)c4)o3)cc2[nH]1 [Example 113]	–
